ChEMBL document CHEMBL1130956 (Bioorg Med Chem Lett, 1998)

How the values were obtained:
Cavia porcellus [1] = test: In vivo activity was determined after oral administration for 2 hr in a guinea pig efficacy model for allergic airway obstruction; format: functional
[2] = biological target: T1, Cysteinyl leukotriene receptor 1 (Cavia porcellus, UniProt Q2NNR5); test: Binding affinity against leukotriene D4 receptor in [3H]LTD4 binding assay
T1 sequence (Q2NNR5 whole entry): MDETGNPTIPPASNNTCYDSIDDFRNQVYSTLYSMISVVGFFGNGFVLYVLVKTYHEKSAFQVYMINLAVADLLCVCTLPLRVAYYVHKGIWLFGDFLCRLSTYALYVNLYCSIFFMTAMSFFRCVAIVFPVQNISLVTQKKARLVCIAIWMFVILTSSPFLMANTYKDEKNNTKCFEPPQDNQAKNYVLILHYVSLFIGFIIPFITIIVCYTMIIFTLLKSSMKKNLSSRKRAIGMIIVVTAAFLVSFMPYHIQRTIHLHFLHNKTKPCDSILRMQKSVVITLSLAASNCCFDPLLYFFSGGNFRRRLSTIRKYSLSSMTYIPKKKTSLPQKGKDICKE

U-937 = test: Ability to mobilize Ca+2 in LTD4 dependent Ca+2 mobilization assay in differentiated human monocytic U-937 cells; format: functional, cell-based
Cavia porcellus [3] = test: In vivo activity was determined after oral administration for 1 hr in a guinea pig efficacy model for allergic airway obstruction; format: functional
Cavia porcellus [4] = test: In vivo activity was determined after oral administration for 2 hrs in a guinea pig efficacy model for allergic airway obstruction; format: functional
Cavia porcellus [5] = test: In vivo activity was determined after 1 mg/kg oral administration for 1 hr in a guinea pig efficacy model for allergic airway obstruction; format: functional
Cavia porcellus [6] = test: In vivo activity was determined after 1 mg/kg oral administration for 2 hrs in a guinea pig efficacy model for allergic airway obstruction; format: functional

SMILES | IC50 [2] | IC50 (U-937) | ED50 (Cavia porcellus [1]) | Inhibition (Cavia porcellus [3]) | ED50 (Cavia porcellus [3]) | ED50 (Cavia porcellus [4]) | inhibition in vivo at 1 mg/kg (Cavia porcellus [5]) | inhibition in vivo at 1 mg/kg (Cavia porcellus [6])
COc1cc(C(=O)NS(=O)(=O)c2ccccc2C)ccc1Cc1cn(C)c2ccc(NC(=O)OC3CCCC3)cc12 [ZAFIRLUKAST] |  | 1 nM |  |  |  | 0.9 mg/kg |  | 
COc1cc(C(=O)NS(=O)(=O)c2ccccc2C)ccc1Cc1cn(C(=O)NCCCc2ccccc2)c2ccc(NC(=O)OC3CCCC3)cc12 | 0.5 nM | 0.1 nM |  |  | 1.6 mg/kg |  |  | 
COc1cc(C(=O)NS(=O)(=O)c2ccccc2C)ccc1Cc1cn(C=O)c2ccc(NC(=O)OC3CCCC3)cc12 | 1 nM | 0.6 nM |  |  | 0.84 mg/kg |  |  | 
COc1cc(C(=O)NS(=O)(=O)c2ccccc2C)ccc1Cc1cn(C(=O)N2CCOCC2)c2ccc(NC(=O)OC3CCCC3)cc12 | 0.4 nM | 2 nM |  | 8% |  |  |  | 
CCN(CC)C(=O)n1cc(Cc2ccc(C(=O)NS(=O)(=O)c3ccccc3C)cc2OC)c2cc(NC(=O)OC3CCCC3)ccc21 | 0.5 nM | 0.8 nM |  |  | 1.2 mg/kg |  |  | 
COc1cc(C(=O)NS(=O)(=O)c2ccccc2C)ccc1Cc1cn(C(F)F)c2ccc(NC(=O)OC3CCCC3)cc12 | 1 nM | 0.4 nM |  |  |  |  |  | 58%

Further lines, with some results ahead:

IC50 [2] | IC50 (U-937) | SMILES | ED50 (Cavia porcellus [1]) | Inhibition (Cavia porcellus [3]) | ED50 (Cavia porcellus [3]) | ED50 (Cavia porcellus [4]) | inhibition in vivo at 1 mg/kg (Cavia porcellus [5]) | inhibition in vivo at 1 mg/kg (Cavia porcellus [6])
2 nM | 0.4 nM | COc1cc(C(=O)NS(=O)(=O)c2ccccc2C)ccc1Cc1cn(C(=O)N(c2ccccc2)c2ccccc2)c2ccc(NC(=O)OC3CCCC3)cc12 | 1.1 mg/kg |  |  |  |  | 
0.5 nM | 0.1 nM | COc1cc(C(=O)NS(=O)(=O)c2ccccc2C)ccc1Cc1cn(C(=O)NCCN(C)C)c2ccc(NC(=O)OC3CCCC3)cc12 |  | 34% |  |  |  | 
0.5 nM | 0.3 nM | COc1cc(C(=O)NS(=O)(=O)c2ccccc2C)ccc1Cc1cn(C(N)=O)c2ccc(NC(=O)OC3CCCC3)cc12 |  |  | 1.6 mg/kg |  |  | 
0.4 nM | 0.2 nM | COc1cc(C(=O)NS(=O)(=O)c2ccccc2C)ccc1Cc1cn(C(=O)N(C)c2ccccc2)c2ccc(NC(=O)OC3CCCC3)cc12 | 1.1 mg/kg |  |  |  |  | 
1 nM | 2 nM | COc1cc(C(=O)NS(=O)(=O)c2ccccc2C)ccc1Cc1c[nH]c2ccc(NC(=O)OC3CCCC3)cc12 [N-DEALKYLATED DERIVATIVE] |  |  |  |  | 40% | 
0.4 nM | 1 nM | COc1cc(C(=O)NS(=O)(=O)c2ccccc2C)ccc1Cc1cn(C(=O)N(C)C)c2ccc(NC(=O)OC3CCCC3)cc12 |  |  |  |  | 39% | 
